Laboratory results published in patent US20240238186A1, “Topical Compositions Comprising (Glyco)Sphingolipids and/or (Glyco)Ceramides” (CarboCode S.A., priority 2021, published 2024).

How the values were obtained:
Assay type in all cases: cell-based
[1] = system: Reconstructed Human Epidermis (RHE); test: Proteomic analysis (LC-MS/MS) of Reconstructed Human Epidermis topically treated with lipid in base emulsion; details: lipid in base emulsion 24h, vs vehicle
From the text: FIGS. 1 to 5 show heatmaps using a log 2 scale with up- or downregulation of respective proteins upon treatment with 0,01% (01), 0,03% (03) and 0,15% (15) of respective ceramide in vehicle as compared to vehicle without ceramide (VEH) (FIG. 1: LacCerNS, FIG. 2: GlcCerNS, FIG. 3: CerNP. FIG. 4: CerNG, FIG. 5: CerNS); detailed experimental setup explained in Example 4.
Material and methods: Reconstructed Human Epidermis (RHE) cell culture was used, as this system mimics the in vivo 3D structure of epidermal tissue as well as the conditions and processes that occur in normal epidermis. RHE were cultured using the medium provided by the manufacturer until analysis. RHE were maintained in survival for 24 hours, before RHE were topically treated with lipid in a base emulsion for 24h. 3 RHE were treated with base emulsion alone and 3 more remained untreated as a control batch (Ctrl). RHE were incubated under classical cell culture conditions (37° C., 5% CO2).
Sample preparation and LC-MS/MS analysis: Protein was extracted using the Pierce Total Protein Extraction Kit (Thermo Fisher) according to manufacturer's recommendations. The protein was mixed with Laemmli buffer and heated to 37° ° C. for 30 min. Protein concentration was determined by the BCA method and standardized for all samples. The samples were separated by SDS-PAGE and digested with trypsin overnight. The peptides generated were acidified and separated. The mass spectra were queried using Proteome Discoverer (version 2.5). The resulting MS/MS data were queried against the Homo sapiens proteome UP000005640 (20371 reviewed entries). Results were filtered based on unique peptides >2, and global peptide scores. Analyses were performed using Proteome Discoverer 2.5 to check for overall sample quality.
Bioinformatics and statistical analysis: Proteomic analysis returned a mean total of 34961 high-quality peptides corresponding to a mean 2422 identifiable and quantifiable RHE proteins among conditions. A summary of proteins differentially expressed within conditions is provided in Annexe 3. Proteins with a p-value≤0,05 in at least one of the concentrations tested for a lipid were considered significant and used for pairwise comparisons. Relevant proteins were classified by their biological processes and associated pathways using the publicly available gene ontology (GO) database provided by the Gene Ontology Consortium and Reactome. Interactome analysis was performed using Cytoscape combined with STRING.

[2] = system: Human epidermal keratinocytes; test: Gene expression in keratinocytes, qPCR; details: 200 ppm in DMSO, 1 week
Description: (§1) Human epidermal keratinocytes are obtained from a commercial vendor. The cells are isolated from juvenile foreskin or from adult normal human tissue collected from various sites that include face, breast, abdomen, and thigh. The cells are cultivated in a T25 flask using a commercial keratinocyte Growth Medium which is a serum-free medium and optimized for the in vitro cultivation of epidermal keratinocytes without feeder cells. A commercial growth supplement and calcium is added to a final concentration of 1.2 mM to induce differentiation.
(§2) Upon reaching cell confluence, the cells are treated with either 200 ppm glucosylceramide or 200 ppm lactosylceramide, each dissolved in dimethyl sulfoxide (DMSO) for 1 week. The cells are homogenised with 2 mL chloroform:methanol (2:1), and transferred to a vial containing Phosphate Buffered Saline (PBS). The homogeniser is rinsed twice with solvent and all rinses are together. The organic phase is evaporated to dryness.
Gene expression is determined by isolating RNA samples from the keratinocytes using a Qiagen RNeasy kit with DNase I digestion. Reverse transcription is performed using a high-capacity cDNA kit, cDNA samples of 40 ng are used for qPCR. Taqman gene expression assay is purchased commercially, and the qPCR reaction is performed using a fast amplifier. […] Relative gene expression is calculated by comparative CT method.

[3] = system: Human epidermal keratinocytes; test: Ceramide levels produced by keratinocytes, HPTLC; details: 200 ppm in DMSO, 1 week; compared to untreated keratinocytes
Description: as §1, §2
Ceramide levels produced by the keratinocytes are measured by a modified high-performance thin layer chromatography (HPTLC) method. […] The plates are stained with 3% copper acetate in 8% phosphoric acid and charred at 160° C. for the quantitation of ceramides. Quantification is performed against known quantities of Ceramide NP by laser scanning densitometry. Each plate is scanned at 425 nm and quantified using WinCATS software.

Structure (SMILES)	phosphomevalonate kinase protein regulation [1]	transglutaminase-1 gene expression [2]	β-glucocerebrosidase (GBA) expression [2]	NAD-dependent malic enzyme (mitochondrial) regulation [1]	cytochrome c oxidase subunit 6C regulation [1]	syndecan-1 protein regulation [1]	IL8 gene expression [2]	TNF gene expression [2]	expression of the ABCA12 gene [2]	involucrin gene expression [2]	Total ceramides in keratinocytes [3]	ATP synthase subunit delta (mitochondrial) regulation [1]	ATP synthase subunit g (mitochondrial) regulation [1]	ATP-dependent zinc metalloprotease YME1L1 regulation [1]	proteins of the mitochondrial respiratory chain, regulation [1]	ceramide synthase 4 protein regulation [1]	other results
CCCCCCCCCCCCC/C=C/[C@@H](O)[C@H](CO)NC(=O)CCCCCCCCCCCCCCCCC [ceramide NS]	upregulation	–	–	–	–	upregulation	–	–	–	–	–	–	–	–	–	–	cornifin-B protein regulation [1]: upregulation; filaggrin-2 protein regulation [1]: upregulation; kallikrein-5 protein regulation [1]: upregulation
CCCCCCCCCCCCCCCCCC(=O)N[C@@H](CO)[C@H](O)CCCCCCCCCCCCCCC [ceramide NG]	upregulation	–	–	–	upregulation	–	–	–	–	–	–	upregulation	upregulation	–	upregulation	upregulation	loricrin protein regulation [1]: upregulation; repetin protein regulation [1]: upregulation; small proline-rich protein 2D regulation [1]: upregulation

Further lines, with some results ahead:

phosphomevalonate kinase protein regulation [1]	transglutaminase-1 gene expression [2]	β-glucocerebrosidase (GBA) expression [2]	NAD-dependent malic enzyme (mitochondrial) regulation [1]	cytochrome c oxidase subunit 6C regulation [1]	Structure (SMILES)	syndecan-1 protein regulation [1]	IL8 gene expression [2]	TNF gene expression [2]	expression of the ABCA12 gene [2]	involucrin gene expression [2]	Total ceramides in keratinocytes [3]	ATP synthase subunit delta (mitochondrial) regulation [1]	ATP synthase subunit g (mitochondrial) regulation [1]	ATP-dependent zinc metalloprotease YME1L1 regulation [1]	proteins of the mitochondrial respiratory chain, regulation [1]	ceramide synthase 4 protein regulation [1]	other results
upregulation	increase in expression	Up-regulation	upregulation	upregulation	CCCCCCCCCCCCC/C=C/[C@@H](O)[C@H](CO[C@@H]1O[C@H](CO)[C@@H](O)[C@H](O)[C@H]1O)NC(=O)CCCCCCCCCCCCCCCCC [glucosyl ceramide]	–	reduced gene expression	reduced gene expression	increases	increase in expression	elevated	upregulation	upregulation	upregulation	upregulation	–	3-ketodihydrosphingosine reductase protein regulation [1]: upregulation; NADH dehydrogenase [ubiquinone] 1 alpha subcomplex subunit 8 regulation [1]: upregulation; NADH dehydrogenase [ubiquinone] iron-sulfur protein 2 (mitochondrial) regulation [1]: upregulation; acetyl-coenzyme A synthetase (cytoplasmic) protein regulation [1]: upregulation; malonate-CoA ligase ACSF3 (mitochondrial) protein regulation [1]: upregulation
upregulation	increase in expression	Up-regulation	upregulation	upregulation	CCCCCCCCCCCCC/C=C/[C@@H](O)[C@H](CO[C@@H]1O[C@H](CO)[C@@H](O[C@@H]2O[C@H](CO)[C@H](O)[C@H](O)[C@H]2O)[C@H](O)[C@H]1O)NC(=O)CCCCCCCCCCCCCCCCC [lactosylceramide]	upregulation	reduced gene expression	reduced gene expression	increases	increase in expression	elevated	upregulation	upregulation	upregulation	upregulation	upregulation	cytochrome b-c1 complex subunit 9 regulation [1]: upregulation; cytochrome c oxidase subunit 2 regulation [1]: upregulation; cytochrome c oxidase subunit NDUFA4 regulation [1]: upregulation
upregulation	–	–	–	–	CCCCCCCCCCCCCCCCCC(=O)N[C@@H](CO)[C@H](O)[C@H](O)CCCCCCCCCCCCCC [ceramide NP]	upregulation	–	–	–	–	–	–	–	–	upregulation	–	NADH dehydrogenase [ubiquinone] iron-sulfur protein 8 (mitochondrial) regulation [1]: upregulation; long-chain-fatty-acid-CoA ligase 3 protein regulation [1]: upregulation; phosphopantothenate-cysteine ligase protein regulation [1]: upregulation
